Marks after values point to notes of the source that are not given here.
Key:
RBL-2H3 cells [1] = assay: Anti-allergy test: A23187-induced β-hexosaminidase release; type: cell-based; settings: for A23187-induced β-hexosaminidase release Inhibition rate (%): Table 4, isolated compounds, concentration not given (values equal 100 μM column of Table 6)
Method: (§1) Equivalently divided supernatants (50 μL) of control wells and experimental wells were incubated with an equal volume (50 μL) of […] p-NAG prepared in 0.1 M citrate buffer (pH 4.5), in which the buffer is formed as a matrix of released β-hexosaminidase; the reaction, after 1 hour incubation at 37° C., was stopped by adding 100 μL of termination buffer (0.1M Na2/NaHCO3, pH 10.0), and then, the absorbance at a wavelength of 405 nm was measured with a microplate reader. The percentage of inhibiting RBL-2H3 cells from releasing β-hexosaminidase was calculated as the percentage of control (untreated stimulated cells), and azelastine (20 μM) was used as a positive control. The test results are shown in Tables 4 to 6 below, and the corresponding results are indicated as mean±SEM (the test was repeated 3 times), wherein * denotes p<0.05, ** denotes p<0.01, *** denotes p<0.001; - denotes being untested; and N/A denotes that the specimen forms mycelium added to the medium, and accordingly, the results cannot be proven.

RBL-2H3 cells [2] = assay: Cell viability of RBL-2H3 cells (MTT); settings: for Viability of RBL-2H3 cells at 200 μg/ml: Table 6, isolated compounds, head prints 200 μg/ml
Method: Cells were cultured using DMEM medium supplemented with 10% FBS, and additional 100 U/mL penicillin and 100 μg/mL streptomycin. The cells were cultured in 10 cm Petri dishes in a 5% CO2 incubator at 37° C., the cells were secondary cultured in 80% confluent trypsin, and then seeded on culture plates at a density of 2×10^5 cells/mL for secretion measurement.
Measurement on cell viability: RBL-2H3 cells were seeded in a 96-well plate at a concentration of 2×10^4 cells/well overnight, specimens having different concentrations (that is, maca extract, dissolved in DMSO) or untreated controls (1% DMSO in Tyrode buffer; 135 mM NaCl, 5 mM KCl, 1.8 mM CaCl, 1.0 mM MgCl2, 5.6 mM glucose, 20 mM HEPES and 1 mg/ml BSA, pH 7.4) were used to treat the cells, the media was removed from the wells after incubation at 37° C., 5% CO2, and an MTT solution (5 mg/mL) stock solution was diluted 1:10 in the medium and then added to the wells (100 μL per well); Thereafter, the cells were incubated at 37° C., 5% CO2 for 1 hours, the medium was removed, the formed Formazan crystals (which can be formed only in normal healthy cells) were dissolved in 100 μL DMSO, and the absorbance at 574 nm wavelength was measured using a microplate reader in which the plates were gently shaked before the measurement. Cell viability values for the specimens were calculated and indicated as a percentage (%) of the control groups (untreated cells).

RBL-2H3 cells [3] = assay: Anti-allergy test: antigen-induced β-hexosaminidase release; type: cell-based; settings: for Antigen-induced β-hexosaminidase release Inhibition rate (%): Table 4, isolated compounds, concentration not given
Method: as §1

human neutrophil [4] = assay: Anti-neutrophil inflammation test: superoxide anion generation; type: cell-based; settings: isolated compounds (10 μM) and positive controls 10 μM, fMLF/CB-activated neutrophils, mean±SEM; for inhibition at 10 µM: Homo sapiens, Neutrophil, read-out: Inhibition rate (%) Superoxide anion generation
Method: (§2) Isolation of human neutrophil: According to the standard scheme of […] sedimentation, neutrophils was obtained from peripheral blood, and then, the neutrophils were purified by centrifugation and erythrocyte hypotonic degradation in a Ficoll-Hypaque gradient; and then, it was confirmed by the trypan blue exclusion test that the purified neutrophils contained more than 98% live cells, and the purified neutrophils were suspended in HBSS without calcium at 4° C. (Yang et al., 2013) prior to the test.
The level of superoxide anion generation by neutrophil activation was measured and determined based on the ferrocytochrome c reduction method according to Yang et al., 2013. In other words, human neutrophil cells (6×10^5 cells/mL) were mixed with 0.6 mg/mL of ferrocytochrome c and 1 mmol/L of CaCl at 37° C., and then the cells were treated with the test specimens having different concentrations (that is, maca extract) or DMSO (0.1% as control) for 5 minutes; thereafter, 10 minutes before activation with 100 nM of fMLF, the cells were incubated with cytochalasin B (1 μg/mL) for 3 minutes, changes in absorbance according to the decrease in ferrocytochrome c at a wavelength of […] with continuous stirring were continuously monitored using a spectrophotometer, and reactions were calculated with and without superoxide dismutase (SOD, 100 U/mL) with dividing by the extinction coefficient of the decreased ferrocytochrome c (21.1 mM^−1 cm^−1) reduction, thereby obtaining the difference value.

[5] = test system: human CD34-positive endothelial progenitor cells (EPC); assay: Pro-angiogenic test: EPC cell growth; type: cell-based; settings: 50 μM of each isolated compound, 48 hours, mean±SEM
Method: Endothelial cell culture: Isolation and culture of human CD34-positive endothelial progenitor cells (EPC) were performed using conventional methods (Chen et al., 2018); human umbilical vein endothelial cells (HUVECs) were purchased from Promo Cell (Heidelberg, Germany); and EPCs and HUVECs were maintained in MV2 medium according to a known protocol (Chung et al., 2013).
Measurement of cell growth: EPCs and HUVECs were cultured overnight at a density of 5×10^3 cells per well in a 96-well plate, and then, in the presence of the test specimen (that is, maca extract), the original medium was replaced with MV2 minimal medium and incubated for 48 hours. The measurements on EPC cell growth were as described in Yang et al., 2019.
The results are shown in Table 1 as below, in which corresponding results are indicated as mean±SEM (the test was repeated 3 times as a whole), wherein, compared to the control group (DSMO), * denotes p<0.05, ** denotes p<0.01, *** denotes p<0.001; and - denotes being untested.

human neutrophil [6] = assay: Anti-neutrophil inflammation test: elastase release; type: cell-based; settings: isolated compounds (10 μM) and positive controls 10 μM, fMLF/CB-activated neutrophils, mean±SEM; for inhibition at 10 µM: Homo sapiens, Neutrophil, read-out: Inhibition rate (%) Elastase release
Method: as §2
The elastase release was used to measure degranulation of azurophilic granules in activated neutrophils (Yang et al., 2013); and the measurement was performed using methoxysuccinyl-Ala-Ala-Pro-Val-p-nitroaniline as an elastase matrix. At 37° C., neutrophils (6×10^5 cells/mL) were added to a mixture of matrix (100 μmol/L) and CaCl2 (1 mmol/L), and treated with the test specimens having different concentrations (that is, maca extract) or DMSO (0.1% as control) for 5 minutes, and then the cells were stimulated by using fMLF (100 nM)/CB (0.5 μg/mL), and changes in absorbance at the 405 nm wavelength were continuously monitored to measure the release of elastase, in which genistein and LY294002 were used as positive controls. The corresponding results are indicated as mean±SEM (the test was repeated 3 or 4 times), in which * denotes p<0.05, ** denotes p<0.01, *** denotes p<0.001; and - denotes being untested.

| SMILES | Percentage of inhibiting A23187-induced β-hexosaminidase release (%) 10 μM/mL (RBL-2H3 cells [1]) | Percentage of inhibiting A23187-induced β-hexosaminidase release (%) 100 μM/mL (RBL-2H3 cells [1]) | Percentage of inhibiting A23187-induced β-hexosaminidase release (%) 500 μM/mL (RBL-2H3 cells [1]) | A23187-induced β-hexosaminidase release Inhibition rate (%) (RBL-2H3 cells [1]) | Viability of RBL-2H3 cells at 200 μg/ml (RBL-2H3 cells [2]) [%] | Percentage of inhibiting antigen-induced β-hexosaminidase release (%) 10 μM/mL (RBL-2H3 cells [3]) | Percentage of inhibiting antigen-induced β-hexosaminidase release (%) 100 μM/mL (RBL-2H3 cells [3]) [%] | Percentage of inhibiting antigen-induced β-hexosaminidase release (%) 500 μM/mL (RBL-2H3 cells [3]) [%] | Antigen-induced β-hexosaminidase release Inhibition rate (%) (RBL-2H3 cells [3]) | Inhibition rate (%) Superoxide anion generation (human neutrophil [4]) [%] | Cell growth rate (%) EPC [5] [%] | Inhibition rate (%) Elastase release (human neutrophil [6]) | inhibition at 10 µM (human neutrophil [4]) [%] | inhibition at 10 µM (human neutrophil [6]) [%] | further results |
| --- | --- | --- | --- | --- | --- | --- | --- | --- | --- | --- | --- | --- | --- | --- | --- |
| COCc1ccc(C=O)n1Cc1cccc(OC)c1 [Compound 3, 5-methoxymethyl-1-(m-methoxybenzyl)-2-aldehyde pyrrole] | 3.7 ± 1.5% | 4.7 ± 0.7% | 12.7 ± 0.7%** | 4.7 ± 0.7% | 95.0 | 13.7 ± 1.9% | 10.7 ± 3.3 | 5.0 ± 4.1 | 10.7 ± 3.3 |  |  |  |  |  |  |
| COCc1ccc(C=O)n1Cc1ccccc1 [Compound 5, 5-methoxymethyl-1-(benzyl)-2-aldehyde pyrrole] | 21.3 ± 3.3%*** | 51.3 ± 4.6%*** | 57.7 ± 4.3%*** | 51.3 ± 4.6*** % | 94.0 | 9.0 ± 4.8% | 11.7 ± 5.9 | 8.3 ± 3.5 | 11.7 ± 5.9 | 21.59±5.35 | 99 ± 5 | 3.33 ± 0.50** % |  |  | IC50 (RBL-2H3 cells [1]; Table 6, isolated compounds): 96.1 µM |
| CN1CCCC(n2nc(Cc3ccc(Cl)cc3)c3ccccc3c2=O)CC1 (stereo not drawn) [Azelastine, reference compound] |  |  |  |  |  |  |  |  |  |  |  |  |  |  | inhibition at 20 µM (RBL-2H3 cells [1]; RBL-2H3, azelastine 20 μM, positive control, read-out: Percentage of inhibiting A23187-induced β-hexosaminidase release (%)): 47.7 ± 3.2%; Viability of RBL-2H3 cells (RBL-2H3 cells [2]; azelastine 20 μM): 88.0%; inhibition at 20 µM (RBL-2H3 cells [3]; RBL-2H3, azelastine 20 μM, positive control, read-out: Percentage of inhibiting antigen-induced β-hexosaminidase release (%)): 54.3 ± 1.8% |
| O=Cc1ccc(CO)n1Cc1ccccc1 [Compound 6, 5-hydroxymethyl-1-(benzyl)-2-aldehyde pyrrole] | 5.7 ± 1.0% | 9.7 ± 2.2% | 26.0 ± 2.4%*** | 9.7 ± 2.2% | 100.0 | 10.3 ± 3.9% | 3.7 ± 3.0 | 0.3 ± 0.3 | 3.7 ± 3.0 | 5.44 ± 2.18 | 104 ± 4 | 2.69 ± 0.49** % |  |  |  |
| N#CCc1cccc(O)c1 [Compound 8, 3-hydroxy-1-cyanomethylbenzene] |  |  |  |  | 97.7 |  |  |  |  |  | 103 ± 2 |  | 0.45 ± 4.35 | 1.78 ± 2.29 | inhibition at 10 µM (RBL-2H3 cells [1]; RBL-2H3, read-out: Percentage of inhibiting A23187-induced β-hexosaminidase release (%) 10 μM/mL): 11 ± 0.8%; inhibition at 100 µM (RBL-2H3 cells [1]; RBL-2H3, read-out: Percentage of inhibiting A23187-induced β-hexosaminidase release (%) 100 μM/mL): 8.3 ± 3.4%; inhibition at 500 µM (RBL-2H3 cells [1]; RBL-2H3, read-out: Percentage of inhibiting A23187-induced β-hexosaminidase release (%) 500 μM/mL): 11.7 ± 1.5%; inhibition at 10 µM (RBL-2H3 cells [3]; RBL-2H3, read-out: Percentage of inhibiting antigen-induced β-hexosaminidase release (%) 10 μM/mL): 13.7 ± 3.9%; inhibition at 100 µM (RBL-2H3 cells [3]; RBL-2H3, read-out: Percentage of inhibiting antigen-induced β-hexosaminidase release (%) 100 μM/mL): 13 ± 2.6%; inhibition at 500 µM (RBL-2H3 cells [3]; RBL-2H3, read-out: Percentage of inhibiting antigen-induced β-hexosaminidase release (%) 500 μM/mL): 4 ± 3.3% |
| O=c1cc(N2CCOCC2)oc2c(-c3ccccc3)cccc12 [LY294002, reference compound] |  |  |  |  |  |  |  |  |  |  |  |  | 95.3 ± 2.78 | 72.8 ± 4.03 |  |
| O=c1c(-c2ccc(O)cc2)coc2cc(O)cc(O)c12 [Genistein, reference compound] |  |  |  |  |  |  |  |  |  |  |  |  | 93.37 ± 0.93 | 44.2 ± 3.72 |  |
| CC(=O)[C@@H]1CCC(=O)N1Cc1ccccc1 [Compound 1, (5S)-acetyl-1-benzylpyrrolidine-2-ketone] | 2.7 ± 1.2% | 4.0 ± 1.7% | 38.0±3.4% |  | 95.3 | 3.7 ± 1.9% | 5.7 ± 2.2 | 9.0 ± 3.7 | 9.0 ± 3.7 | 7.50 ± 1.96 | 99 ± 1 | 1.59 ± 0.99% |  |  |  |
| COc1cccc(Cn2c(C=O)ccc2CO)c1 [Compound 4, 5-hydroxymethyl-1-(m-methoxybenzyl)-2-aldehyde pyrrole] | 8.3 ± 1.0% | 6.7 ± 1.4% |  | 6.7 ± 1.4% | 96.0 | 16.7 ± 6.6%* | 10.0 ± 4.1 |  | 10.0 ± 4.1 | 1.05 ± 0.78 | 103 ± 1 | 0.00 ± 0.59% |  |  |  |

Reference: patent US11771729B2, “Maca extract and use thereof” (KAOHSIUNG MEDICAL UNIVERSITY, priority 2021, dated 2023)
